Some test systems named below: CAKI-1 renal; EKVX NSCLC; HL-60(TB) leukemia; M14 melanoma; MCF7 breast; OVCAR-5 ovarian; RXF 393 renal; SNB-75 CNS; SR leukemia; SW-620 colon.
Holding throughout (assay): NCI tumour cell line growth inhibition, 48 h

Several values for one entry are separate records, joined by “and”; a condition that tells them apart may be missing. Equal values may be shown once.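 Five concentrations, 48 hours, 96-well plates. At the GI50, growth is halved. TGI is the concentration that stops growth completely.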

`CN(CCCN(C)CCC1CCCCC1)CCC1CCCCC1`: the GI50 in the test with CAKI-1 renal is 1.52 µM; in the test on EKVX NSCLC, 2.24 µM; in the test on HL-60(TB) leukemia, 0.319 µM; with M14 melanoma, 1.27 µM; with MCF7 breast, 1.62 µM; in the test with OVCAR-5 ovarian, 2.98 µM. Besides, the GI50 in the test with RXF 393 renal is 0.946 µM; in the test with SNB-75 CNS, 2.04 µM; in the test on SR leukemia, 1.19 µM; with SW-620 colon it was 2.28 µM. Besides, the TGI is 3.82 µM in the test on CAKI-1 renal; 11.1 µM in the test on EKVX NSCLC; 8.61 µM in the test on HL-60(TB) leukemia; 2.59 µM in the test with M14 melanoma; 3.28 µM in the test on MCF7 breast; 10.7 µM in the test on OVCAR-5 ovarian. Further, the TGI in the test with RXF 393 renal was determined as 3.54 µM; in the test on SNB-75 CNS it was 6.39 µM; in the test with SR leukemia, 4.21 µM; in the test with SW-620 colon, 6.84 µM.
As for `O=C1COCCN1c1ccc(NCc2cn(C(=O)c3ccc(Cl)cc3)c3ccccc23)cc1`, the GI50 in the test with CAKI-1 renal was 0.0531 µM; in the test with EKVX NSCLC, 17.2 µM; with HL-60(TB) leukemia it was 4.97 µM; in the test on M14 melanoma it was 7.92 µM; in the test on MCF7 breast it was 0.293 µM; in the test on OVCAR-5 ovarian, 0.187 µM. In addition, the GI50 is 3.09 µM in the test with RXF 393 renal, 2.6 µM in the test with SNB-75 CNS, 3.08 µM with SR leukemia and 2.23 µM in the test with SW-620 colon. Besides, the TGI in the test with CAKI-1 renal was 1.8 µM; with EKVX NSCLC, greater than 100 µM; with HL-60(TB) leukemia, 20.9 µM; in the test on M14 melanoma, greater than 100 µM; in the test on MCF7 breast it was 15 µM; with OVCAR-5 ovarian, 0.622 µM. Further, the TGI was 18.3 µM in the test with RXF 393 renal, 52.6 µM in the test on SNB-75 CNS, greater than 100 µM in the test with SR leukemia and greater than 100 µM in the test with SW-620 colon.
As for `CC(=O)n1c(-c2ccc(Cl)c(Cl)c2)cn(-c2ccc(Cl)cc2)c1=O`, the GI50 was 20.8 µM in the test with CAKI-1 renal; 12.5 µM with EKVX NSCLC; 34.8 µM in the test with HL-60(TB) leukemia; 27.6 µM in the test on M14 melanoma; 30.8 µM with MCF7 breast; 55 µM in the test on OVCAR-5 ovarian. In addition, the GI50 in the test on RXF 393 renal was 11.4 µM; with SNB-75 CNS, 13.6 µM; in the test on SR leukemia it was 16.1 µM; in the test with SW-620 colon, 30.9 µM. Further, the TGI in the test on CAKI-1 renal was 43.9 µM; with EKVX NSCLC it was 34.6 µM; with HL-60(TB) leukemia it was greater than 100 µM; in the test on M14 melanoma it was greater than 100 µM; in the test on MCF7 breast, greater than 100 µM; with OVCAR-5 ovarian it was greater than 100 µM. Also, the TGI with RXF 393 renal was 27 µM; in the test with SNB-75 CNS, 31.4 µM; in the test with SR leukemia, 33 µM; in the test with SW-620 colon it was greater than 100 µM.
Take `CC(C)=CCc1cc(C2COc3cc4c(c(O)c3C2=O)C=CC(C)(C)O4)c(O)cc1O` (configuration not stated): the TGI in the test with CAKI-1 renal came to 30.9 µM; in the test on EKVX NSCLC, 27.5 µM; in the test on HL-60(TB) leukemia it was 31.1 µM; in the test with M14 melanoma it was 26.2 µM; in the test with MCF7 breast it was 33.5 µM; in the test with OVCAR-5 ovarian it was 29.7 µM. Moreover, the TGI was determined as 20.6 µM with RXF 393 renal, 36 µM with SNB-75 CNS, 24.1 µM in the test with SR leukemia and 57.3 µM in the test with SW-620 colon.
With `COc1ccc2c(c1OC)C(=O)O[C@@H]2[C@H]1c2c(c(Br)c3c(c2OC)OCO3)CCN1C`, the GI50 was 4.22 µM with CAKI-1 renal; 41.8 µM with EKVX NSCLC; 1.82 µM in the test on HL-60(TB) leukemia; 3.3 µM in the test with M14 melanoma; 4.18 µM in the test on MCF7 breast; greater than 100 µM in the test on OVCAR-5 ovarian. Also, the GI50 in the test on RXF 393 renal is 20.3 µM; in the test with SNB-75 CNS it was 93.3 µM; with SR leukemia, 0.918 µM; in the test with SW-620 colon it was 5.37 µM. Also, the TGI with CAKI-1 renal was 37.5 µM; in the test with EKVX NSCLC, greater than 100 µM; in the test on HL-60(TB) leukemia, greater than 100 µM; in the test on M14 melanoma, 25 µM; in the test with MCF7 breast it was greater than 100 µM; in the test with OVCAR-5 ovarian, greater than 100 µM. In addition, the TGI in the test with RXF 393 renal, in the test on SNB-75 CNS, in the test on SR leukemia and in the test on SW-620 colon was greater than 100 µM each time.
Take `COC(=O)Nc1nc2ccc(S(=O)(=O)c3ccc(NC(=O)Nc4cc(C(F)(F)F)ccc4F)cc3)cc2[nH]1`: the GI50 in the test on CAKI-1 renal, with EKVX NSCLC, in the test on HL-60(TB) leukemia, with M14 melanoma, in the test with MCF7 breast and in the test on OVCAR-5 ovarian was greater than 25 µM each time. Moreover, the GI50 in the test on RXF 393 renal, with SNB-75 CNS, in the test with SR leukemia and in the test with SW-620 colon was greater than 25 µM throughout. In addition, the TGI with CAKI-1 renal, in the test on EKVX NSCLC, in the test with HL-60(TB) leukemia, with M14 melanoma, in the test on MCF7 breast and with OVCAR-5 ovarian was greater than 25 µM throughout. For the same compound, the TGI with RXF 393 renal, in the test with SNB-75 CNS, with SR leukemia and in the test on SW-620 colon was greater than 25 µM each time.
As for `c1ccc2c(CN3CCC(C4CCN(Cc5cccc6ccccc56)CC4)CC3)cccc2c1`, the GI50 in the test on CAKI-1 renal was 3.7 µM and 34.3 µM; in the test with EKVX NSCLC, 35.1 µM and > 91.4 µM; with OVCAR-5 ovarian it was 22.3 µM and > 100 µM; with SNB-75 CNS it was 2.77 µM and > 27.7 µM; in the test on SR leukemia, 1.47 µM and 10.2 µM; in the test with SW-620 colon it was 3.02 µM and 11.4 µM. For the same compound, the TGI in the test with CAKI-1 renal was 21.2 µM and > 100 µM; in the test on EKVX NSCLC, greater than 100 µM; with HL-60(TB) leukemia it was 4.5 µM and 26.1 µM; with M14 melanoma, 3.59 µM and 3.89 µM; in the test on MCF7 breast, greater than 73.7 µM; in the test on OVCAR-5 ovarian, greater than 100 µM. Moreover, the TGI was 26.9 µM and 43.3 µM in the test with RXF 393 renal; 9.17 µM and 40.1 µM in the test on SW-620 colon.
In the case of `CN(C)c1ncnc2c1ccn2C1OC(CO)C(O)C1O` (configuration not stated), the GI50 with CAKI-1 renal was 1.58 µM; with EKVX NSCLC, 3.98 µM; in the test on HL-60(TB) leukemia, 0.316 µM; with M14 melanoma, 16.1 µM; in the test on MCF7 breast it was 0.115 µM; in the test with OVCAR-5 ovarian it was 5.51 µM. Further, the GI50 in the test on RXF 393 renal was 18.1 µM; in the test on SNB-75 CNS, 1.64 µM; in the test with SR leukemia, 13.8 µM; with SW-620 colon, 2.55 µM. Further, the TGI in the test on CAKI-1 renal is greater than 39.8 µM; with EKVX NSCLC, greater than 92.3 µM; with HL-60(TB) leukemia, 1.89 µM; in the test with M14 melanoma it was greater than 100 µM; with MCF7 breast, 7.32 µM; in the test with OVCAR-5 ovarian, greater than 100 µM. Besides, the TGI in the test on RXF 393 renal was greater than 100 µM; in the test on SNB-75 CNS, 22.5 µM; in the test with SR leukemia it was greater than 100 µM; with SW-620 colon it was greater than 100 µM.
Turning to `O=c1[nH]nc(-c2ccccc2)c2c(-c3ccccc3)onc12`, the GI50 was 0.728 µM in the test with CAKI-1 renal; 1.25 µM with EKVX NSCLC; 0.291 µM with HL-60(TB) leukemia; 0.329 µM in the test on M14 melanoma; 0.368 µM in the test on MCF7 breast; greater than 62.8 µM in the test with OVCAR-5 ovarian. Further, the GI50 is 1.19 µM in the test on RXF 393 renal, 0.96 µM in the test with SNB-75 CNS, 0.288 µM in the test on SR leukemia and 0.319 µM with SW-620 colon. Further, the TGI with CAKI-1 renal is greater than 100 µM; with EKVX NSCLC, greater than 100 µM; in the test with M14 melanoma, greater than 100 µM; in the test with MCF7 breast, greater than 100 µM; with OVCAR-5 ovarian, greater than 100 µM; with RXF 393 renal, greater than 37.9 µM. In addition, the values for the TGI in the test on SNB-75 CNS and in the test with SW-620 colon were greater than 21.9 µM and greater than 100 µM, respectively.
As for `COc1cc2nncc(SCc3ccc(Cl)c(Cl)c3)c2cc1OC`, the TGI with CAKI-1 renal, in the test on EKVX NSCLC, with HL-60(TB) leukemia, with M14 melanoma, in the test on MCF7 breast and with OVCAR-5 ovarian was greater than 100 µM each time. The TGI in the test on RXF 393 renal is greater than 100 µM; with SNB-75 CNS, 73 µM; in the test on SR leukemia it was greater than 100 µM; in the test with SW-620 colon, greater than 100 µM.

The record behind these values is PubChem BioAssay (NCI).
